Experimental data reported in US12357598B2, “Treatment of neurodevelopmental disorders” (THE REGENTS OF THE UNIVERSITY OF CALIFORNIA, priority 2018, dated 2025).

Test system: ddY mice
Assay: Oxylipin analysis of plasma and brain regions of juvenile offspring after maternal glyphosate exposure
Type: in vivo, mouse
Conditions: juvenile offspring (P28), maternal 0.095% glyphosate
Excerpt: Collection of blood and brain samples and oxylipin analysis. Water or 0.095% glyphosate was given to pregnant mice from E5 to P21, as described above. The male offspring were separated from their mothers at weaning (P21). At juvenile (P28) stage, mice were deeply anesthetized with isoflurane and plasma was collected. Subsequently, brains were removed from the skulls. For Western blot analysis, brain regions such as prefrontal cortex (PFC), hippocampus, and striatum, were dissected from brain on ice. The samples were stored at −80° C. before assay. For oxylipin analysis, plasma was collected after isoflurane anesthesia at juvenile (P28) stage. Subsequently, PFC, hippocampus, and striatum were dissected from brain on ice, and the samples were stored at −80° C. before assay. Measurement of eicosanoids in the plasma and brain regions was performed at UC Davis using the previous method (4).

SMILES: O=C(O)CNCP(=O)(O)O [glyphosate]
- 4,5-DiHDPE level (plasma): 1.527 ± 0.112 nmol/mL
- 5(6)-EpETrE level (plasma): 24.279 ± 3.524 nmol/mL
- 5,6-DiHETrE level (plasma): 0.417 ± 0.047 nmol/mL
- 5-HEPE level (plasma): 8.117 ± 1.251 nmol/mL
- 5-HETE level (plasma): 2.137 ± 0.335 nmol/mL
- 5-oxo-ETE level (plasma): 20.987 ± 2.839 nmol/mL
- 6-keto-PGF1a level (plasma): 0.252 ± 0.043 nmol/mL
- 7(8)-EpDPE level (plasma): 195.343 ± 16.718 nmol/mL
- 8(9)-EpETE level (plasma): 0.863 ± 0.138 nmol/mL
- 8(9)-EpETrE alt level (plasma): 3.325 ± 0.409 nmol/mL
- 8(9)-EpETrE level (plasma): 13.892 ± 2.938 nmol/mL
- 8-HEPE level (plasma): 7.652 ± 0.970 nmol/mL
- 8-HETE level (plasma): 7.349 ± 0.718 nmol/mL
- 9(10)-EpOME level (plasma): 28.326 ± 4.243 nmol/mL
- 9,10,13-TriHOME level (plasma): 5.220 ± 0.403 nmol/mL
- 9,12,13-TriHOME level (plasma): 12.758 ± 1.096 nmol/mL
- 9-HETE level (plasma): 0.056 ± 0.012 nmol/mL
- 9-HODE level (plasma): 17.293 ± 2.482 nmol/mL
- 10(11)-EpDPE level (plasma): 13.285 ± 1.234 nmol/mL
- 11(12)-EpETE level (plasma): 2.579 ± 0.284 nmol/mL
- 11(12)-EpETrE level (plasma): 6.360 ± 1.002 nmol/mL
- 11,12-,15-TriHETrE level (plasma): 0.300 ± 0.072 nmol/mL
- 11,12-DiHETrE level (plasma): 0.394 ± 0.045 nmol/mL
- 11-HETE level (plasma): 1.949 ± 0.131 nmol/mL
- 12(13)-EpOME level (plasma): 38.512 ± 4.378 nmol/mL
- 12-HEPE level (plasma): 92.380 ± 15.026 nmol/mL
- 12-HETE level (plasma): 90.069 ± 11.494 nmol/mL
- 12-oxo-ETE level (plasma): 500.173 ± 99.031 nmol/mL
- 13(14)-EpDPE level (plasma): 8.177 ± 0.873 nmol/mL
- 13,14-DiHDPE level (plasma): 0.530 ± 0.056 nmol/mL
- 13-HODE level (plasma): 66.733 ± 9.200 nmol/mL
- 14(15)-EpETE level (plasma): 2.316 ± 0.258 nmol/mL
- 14(15)-EpETrE level (plasma): 4.038 ± 0.637 nmol/mL
- 14,15-DiHETrE level (plasma): 0.575 ± 0.051 nmol/mL
- 15(16)-EpODE level (plasma): 14.493 ± 1.929 nmol/mL
- 15(S)-HETrE level (plasma): 0.743 ± 0.167 nmol/mL
- 15-HETE level (plasma): 1.985 ± 0.228 nmol/mL
- 15-oxo-ETE level (plasma): 0.746 ± 0.105 nmol/mL
- 16(17)-EpDPE level (plasma): 7.978 ± 0.799 nmol/mL
- 16,17-DiHDPE level (plasma): 1.955 ± 0.201 nmol/mL
- 17(18)-EpETE level (plasma): 4.845 ± 0.480 nmol/mL
- 17-HDoHE level (plasma): 1386.287 ± 316.090 nmol/mL
- 19(20)-EpDPE level (plasma): 19.092 ± 1.307 nmol/mL
- 19,20-DiHDPE level (plasma): 6.507 ± 0.444 nmol/mL
- EKODE level (plasma): 12.405 ± 2.140 nmol/mL
- LTB3 level (plasma): 2.540 ± 0.525 nmol/mL
- PGD2 level (plasma): 0.138 ± 0.010 nmol/mL
- PGE2 level (plasma): 0.704 ± 0.010 nmol/mL
- PGF2a level (plasma): 0.462 ± 0.048 nmol/mL
- TXB2 level (plasma): 0.548 ± 0.069 nmol/mL
- 4,5-DiHDPE level (striatum): 1.331 ± 0.320 pmol/g
- 5(6)-EpETrE level (striatum): 2286.424 ± 589.971 pmol/g
- 5,6-DiHETrE level (striatum): 0.655 ± 0.058 pmol/g
- 5-HEPE level (striatum): 1.966 ± 0.253 pmol/g
- 5-HETE level (striatum): 21.009 ± 1.874 pmol/g
- 5-oxo-ETE level (striatum): 177.806 ± 23.342 pmol/g
- 6-keto-PGF1a level (striatum): 70.151 ± 4.942 pmol/g
- 7(8)-EpDPE level (striatum): 3684.482 ± 1464.079 pmol/g
- 8(9)-EpETE level (striatum): 2.863 ± 1.693 pmol/g
- 8(9)-EpETrE alt level (striatum): 256.271 ± 63.811 pmol/g
- 8(9)-EpETrE level (striatum): 7513.6 ± 2879.9 pmol/g
- 8-HEPE level (striatum): 1.198 ± 0.106 pmol/g
- 8-HETE level (striatum): 7.063 ± 1.134 pmol/g
- 9(10)-EpOME level (striatum): 64.909 ± 24.089 pmol/g
- 9,10,13-TriHOME level (striatum): 35.219 ± 5.532 pmol/g
- 9,12,13-TriHOME level (striatum): 59.110 ± 9.487 pmol/g
- 9-HETE level (striatum): 2.001 ± 0.403 pmol/g
- 9-HODE level (striatum): 42.211 ± 2.648 pmol/g
- 10(11)-EpDPE level (striatum): 283.118 ± 111.688 pmol/g
- 11(12)-EpETE level (striatum): 2.950 ± 0.707 pmol/g
- 11(12)-EpETrE level (striatum): 1056.655 ± 383.807 pmol/g
- 11,12-,15-TriHETrE level (striatum): 28.513 ± 2.432 pmol/g
- 11,12-DiHETrE level (striatum): 1.461 ± 0.114 pmol/g
- 11-HETE level (striatum): 263.508 ± 14.043 pmol/g
- 12(13)-EpOME level (striatum): 75.548 ± 26.478 pmol/g
- 12-HEPE level (striatum): 16.777 ± 3.707 pmol/g
- 12-HETE level (striatum): 402.213 ± 68.023 pmol/g
- 12-oxo-ETE level (striatum): 2383.322 ± 205.470 pmol/g
- 13(14)-EpDPE level (striatum): 196.586 ± 72.402 pmol/g
- 13,14-DiHDPE level (striatum): 0.849 ± 0.088 pmol/g
- 13-HODE level (striatum): 61.551 ± 3.988 pmol/g
- 14(15)-EpETE level (striatum): 2.368 ± 0.640 pmol/g
- 14(15)-EpETrE level (striatum): 991.031 ± 327.438 pmol/g
- 14,15-DiHETrE level (striatum): 2.399 ± 0.255 pmol/g
- 15(16)-EpODE level (striatum): 0.837 ± 0.335 pmol/g
- 15(S)-HETrE level (striatum): 13.863 ± 0.898 pmol/g
- 15-HETE level (striatum): 312.592 ± 16.237 pmol/g
- 15-oxo-ETE level (striatum): 15.203 ± 3.961 pmol/g
- 16(17)-EpDPE level (striatum): 186.178 ± 73.985 pmol/g
- 16,17-DiHDPE level (striatum): 1.427 ± 0.114 pmol/g
- 17(18)-EpETE level (striatum): 7.282 ± 2.840 pmol/g
- 17-HDoHE level (striatum): 7832.089 ± 1004.299 pmol/g
- 19(20)-EpDPE level (striatum): 373.365 ± 128.458 pmol/g
- 19,20-DiHDPE level (striatum): 8.734 ± 0.672 pmol/g
- EKODE level (striatum): 14.223 ± 1.256 pmol/g
- LTB3 level (striatum): 74.130 ± 28.033 pmol/g
- PGD2 level (striatum): 404.389 ± 30.557 pmol/g
- PGE2 level (striatum): 61.254 ± 3.057 pmol/g
- PGF2a level (striatum): 367.138 ± 24.248 pmol/g
- TXB2 level (striatum): 219.314 ± 15.121 pmol/g
